From patent publication US10357490B2, “Combinations for the treatment of neuroblastoma” (IGNYTA, INC., priority 2014, dated 2019)

What was measured:
[1] = tested on: TrkB-expressing neuroblastoma cells (SH-SY5Y cells stably transfected with TrkB); test: Sulphorhodamine B (SRB) assay, survival and growth of TrkB-expressing neuroblastoma cells; type: cell-based; conditions: single agent; 1-100 nM; 100 ng per mL BDNF; 24, 48, 72 hours
SY5Y-TrkB cells = test: SY5Y-TrkB xenograft study: tumor growth and event-free survival; type: in vivo, athymic nu/nu mice; conditions: oral
Experimental: N-[5-(3,5-difluorobenzyl)-1H-indazol-3-yl]-4-(4-methyl-piperazin-1-yl)-2-(tetrahydro-2H-pyran-4-ylamino) benzamide_was dissolved in DMSO to obtain stocks for in vitro studies. For in vivo xenograft experiments, N-[5-(3,5-difluorobenzyl)-1H-indazol-3-yl]-4-(4-methyl-piperazin-1-yl)-2-(tetrahydro-2H-pyran-4-ylamino) benzamide was reconstituted in 0.5% methyl cellulose (Sigma-Aldrich, viscosity 400 cP, 2% in H2O) containing 1% Tween 80 at a final dosing volume of 10 mL per kg. Prior to dosing, the formulation was stirred at room temperature for 30 min, and then sonicated in a water bath sonicator for 20 min. The formulation was made fresh every week. For the in vivo study, the animals were dosed with the formulation of N-[5-(3,5-difluorobenzyl)-1H-indazol-3-yl]-4-(4-methyl-piperazin-1-yl)-2-(tetrahydro-2H-pyran-4-ylamino) benzamide twice a day (BID) for 7 days per week at a dose of 60 mg per kg.
Xenograft studies were performed using SH-SY5Y cells stably transfected with TrkB. Cells were grown in RPMI-1640 medium containing 10% fetal bovine serum and maintained in 150 cm^3 Costar culture flasks in a humidified atmosphere of 95% air and 5% CO2. Cells were harvested using 0.2% tetra sodium EDTA in phosphate buffered saline (PBS).
Six-week-old athymic nu/nu mice were obtained from Jackson Laboratories. Mice were maintained at five per cage under humidity- and temperature-controlled conditions in a light/dark cycle that was set at 12-hour intervals.
For in vivo xenograft studies, six-week-old athymic nu/nu mice were injected subcutaneously in the flank with 1×10^7 SY5Y-TrkB cells in 0.1 ml of Matrigel (BD Bioscience, Palo Alto, Calif.). Tumors were measured 2 times per week in 3 dimensions, and the volume calculated as follows: [(0.523×L×W×W)/1000]. Body weights of the mice were obtained every week and the dose of the tested compounds were adjusted accordingly. […]

CN1CCN(c2ccc(C(=O)Nc3n[nH]c4ccc(Cc5cc(F)cc(F)c5)cc34)c(NC3CCOCC3)c2)CC1 [N-[5-(3,5-difluorobenzyl)-1H-indazol-3-yl]-4-(4-methyl-piperazin-1-yl)-2-(tetrahydro-2H-pyran-4-ylamino) benzamide]
inhibition of growth of TrkB-expressing NB cells in vitro [1]: significantly inhibited growth | Estimated slope from linear mixed effects model (increase of log tumor volume) (SY5Y-TrkB cells; Control vs Group 2 analysis (FIG. 3), Group 2: alone, 60 mg per kg, twice per day, 7 times per week): 0.0973 per day in the log of tumor volume | Estimated slope of trace in FIG. 1, linear mixed effects model (SY5Y-TrkB cells; Group 2: alone, 60 mg per kg, twice per day, 7 times per week): 0.0696 per day in the log of tumor volume | tumor growth inhibition compared to control animals (SY5Y-TrkB cells; single agent therapy, 60 mg per kg BID): significant tumor growth inhibition
